Data taken from ChEMBL document CHEMBL1201862, “PubChem BioAssay data set” (2004).
The source made the active and inactive calls.

Legend:
Melanocortin receptor 4 = Melanocortin receptor 4 (Homo sapiens, UniProt P32245); format: functional, cell-based;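 further: Cell-based assay with luminescence read-out, confirmatory dose-response testing for agonist activity of biased ligands at MC4R; human U2OS cells with tagged receptor and beta-arrestin; potency of agonists that increase receptor coupling to beta-arrestin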
[1] = target: T1, Methionyl-tRNA synthetase, putative (Trypanosoma brucei brucei, UniProt Q38C91); format: functional, Trypanosoma brucei brucei strain 927/4 GUTat10.1
T1 sequence (Q38C91 whole entry): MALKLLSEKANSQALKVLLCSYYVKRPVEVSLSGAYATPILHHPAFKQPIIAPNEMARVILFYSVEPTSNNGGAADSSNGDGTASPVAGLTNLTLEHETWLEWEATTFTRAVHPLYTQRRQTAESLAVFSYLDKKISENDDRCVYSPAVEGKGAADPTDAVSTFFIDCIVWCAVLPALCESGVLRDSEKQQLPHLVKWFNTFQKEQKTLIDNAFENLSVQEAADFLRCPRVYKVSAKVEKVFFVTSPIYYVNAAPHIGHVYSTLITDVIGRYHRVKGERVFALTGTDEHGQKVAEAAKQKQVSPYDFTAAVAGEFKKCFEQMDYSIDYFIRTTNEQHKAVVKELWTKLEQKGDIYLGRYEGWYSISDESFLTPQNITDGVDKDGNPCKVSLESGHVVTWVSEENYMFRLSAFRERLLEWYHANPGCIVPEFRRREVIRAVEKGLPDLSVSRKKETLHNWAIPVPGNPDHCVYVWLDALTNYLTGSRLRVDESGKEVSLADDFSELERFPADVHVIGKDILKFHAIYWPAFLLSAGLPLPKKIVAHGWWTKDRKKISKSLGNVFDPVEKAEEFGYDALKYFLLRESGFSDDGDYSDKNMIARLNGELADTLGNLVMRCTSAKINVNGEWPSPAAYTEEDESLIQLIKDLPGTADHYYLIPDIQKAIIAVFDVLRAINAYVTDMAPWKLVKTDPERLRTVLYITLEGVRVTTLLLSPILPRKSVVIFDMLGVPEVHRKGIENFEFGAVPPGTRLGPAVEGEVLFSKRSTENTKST

[2] = Counterscreen for inhibitors of Trypanosoma brucei methionyl tRNA synthetase (MetRS): Luminescence-based cell-based high throughput dose response assay to identify compounds that are cytotoxic to Jurkat human T lymphocyte cells.; format: functional
[3] = target: T2, Rac GTPase-activating protein 1 (Homo sapiens, UniProt Q9H0H5); experiment: MgcRacGAP GTPase-activating activity inhibitors, confirmation, biochemical, ADP Hunter fluorescence, primary and confirmatory (AID 624330); format: functional
T2 sequence (Q9H0H5 whole entry): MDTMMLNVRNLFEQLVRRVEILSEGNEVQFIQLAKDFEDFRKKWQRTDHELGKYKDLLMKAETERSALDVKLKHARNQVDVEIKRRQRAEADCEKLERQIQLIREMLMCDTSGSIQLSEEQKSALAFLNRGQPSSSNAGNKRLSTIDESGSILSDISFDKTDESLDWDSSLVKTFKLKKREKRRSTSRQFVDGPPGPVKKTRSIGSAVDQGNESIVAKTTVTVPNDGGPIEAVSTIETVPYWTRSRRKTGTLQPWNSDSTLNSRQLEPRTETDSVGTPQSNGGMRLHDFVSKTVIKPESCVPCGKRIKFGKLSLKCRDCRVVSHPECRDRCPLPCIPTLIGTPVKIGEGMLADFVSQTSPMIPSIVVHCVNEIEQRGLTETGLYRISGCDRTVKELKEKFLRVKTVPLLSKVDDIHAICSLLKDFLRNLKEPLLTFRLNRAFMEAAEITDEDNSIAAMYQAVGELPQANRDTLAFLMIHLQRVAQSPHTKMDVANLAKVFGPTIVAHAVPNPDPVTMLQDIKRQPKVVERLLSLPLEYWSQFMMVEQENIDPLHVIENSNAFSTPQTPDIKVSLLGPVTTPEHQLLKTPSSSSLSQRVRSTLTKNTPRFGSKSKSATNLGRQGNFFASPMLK

[4] = target: T1, Methionyl-tRNA synthetase, putative; format: functional, Trypanosoma brucei brucei strain 927/4 GUTat10.1; remark: listed apart in the source
[5] = target: NAD-dependent protein deacylase sirtuin-5, mitochondrial (Homo sapiens, UniProt Q9NXA8); experiment: SIRT5 desuccinylase inhibitors, dose response, biochemical, fluorescence imaging, cherry-pick, set 5 (AID 720591);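 further: desuccinylation of succinyl peptide AMC substrate read as fluorescence after trypsin release; potency of inhibitors that lower fluorescence and may act on trypsin instead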
[6] = target: T3, Carboxy-terminal domain RNA polymerase II polypeptide A small phosphatase 1 (Homo sapiens, UniProt Q9GZU7); experiment: inhibitors of CTDSP1, concentration-response testing, biochemical assay, absorbance-based, actives from ultra-high-throughput screening (AID 540297); format: functional
T3 sequence (Q9GZU7 whole entry): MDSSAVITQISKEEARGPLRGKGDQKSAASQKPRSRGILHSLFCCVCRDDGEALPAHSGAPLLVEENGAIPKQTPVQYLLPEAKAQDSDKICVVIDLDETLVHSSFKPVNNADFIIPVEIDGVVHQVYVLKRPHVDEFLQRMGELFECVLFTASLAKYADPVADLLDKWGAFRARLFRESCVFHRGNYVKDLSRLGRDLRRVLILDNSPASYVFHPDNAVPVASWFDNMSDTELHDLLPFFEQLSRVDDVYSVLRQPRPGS

cells [7] = format: functional, cell-based
[8] = C. albicans growth with fluconazole, confirmation, fluorescence, retest (AID 2467); format: functional, cell-based
[9] = HepG2 cell cytotoxicity, dose response, cytotoxicity control for Shn3 inhibitor project, CellTiter-Glo, cherry-picked (AID 624134); format: functional, cell-based
[10] = inhibitors of intracellular T. cruzi replication, confirmation, NIH3T3 host cells, beta-gal luminescence (AID 2044); format: functional, cell-based;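 further: intracellular parasites grown in NIH/3T3 mouse fibroblasts as host cells; luminescent beta-galactosidase reporter signal from transgenic T. cruzi replicating inside host cells; inhibitors lower the luminescence signal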
[11] = system: Streptococcus sp. 'group A'; experiment: growth inhibition of control SK(-) GAS strain, dose response, counter-screen for streptokinase expression inhibitor project, luminescence, kanamycin, BacTiterGlo, confirmation (AID 1900); format: functional, organism-based
Streptococcus = experiment: Group A Streptococcus viability loss, dose response, counter-screen for streptokinase expression inhibitor project, luminescence, BacTiterGlo (AID 1915); format: functional, organism-based;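 further: potency for reduction of bacterial viability or growth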
cells [12] = format: functional, cell-based; remark: listed apart in the source
[13] = Shn3 3'UTR reporter inhibitors, dose response, cell-based, Clone20 osteoblasts, firefly luciferase, cherry-picked (AID 624132); format: functional;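 further: firefly luciferase luminescence from reporter carrying the Shn3 3'UTR in osteoblasts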
[14] = control 3'UTR Renilla luciferase suppression, dose response, counter-screen for Shn3 inhibitor project, cell-based, Clone20-Shn3RL, cherry-picked (AID 624133); format: functional
Beta-galactosidase = Beta-galactosidase (Escherichia coli, UniProt Q8VNN2); experiment: PubChem AID 485352; format: functional
Cytochrome P450 2C9 = Cytochrome P450 2C9 (Homo sapiens, UniProt P11712)
[15] = NIH-3T3 fibroblast cytotoxicity, dose response, cytotoxicity control, cell-based, fluorescence, Alamar Blue, secondary assay (AID 2327); format: functional;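 further: NIH-3T3 mouse fibroblasts cultured with fluconazole at 8 µg/mL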
[16] = cytotoxicity toward NIH3T3 fibroblasts, dose response, counter-screen, cell-based, ATP luminescence, mouse fibroblasts (AID 2010); format: functional;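 further: cells exposed to compound for about 90 hours before reading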
Cytochrome P450 1A2 = target: T4, Cytochrome P450 1A2 (Homo sapiens, UniProt P05177);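 further: PubChem cytochrome P450 panel assay, CYP1A2 panel member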
T4 sequence (P05177 whole entry): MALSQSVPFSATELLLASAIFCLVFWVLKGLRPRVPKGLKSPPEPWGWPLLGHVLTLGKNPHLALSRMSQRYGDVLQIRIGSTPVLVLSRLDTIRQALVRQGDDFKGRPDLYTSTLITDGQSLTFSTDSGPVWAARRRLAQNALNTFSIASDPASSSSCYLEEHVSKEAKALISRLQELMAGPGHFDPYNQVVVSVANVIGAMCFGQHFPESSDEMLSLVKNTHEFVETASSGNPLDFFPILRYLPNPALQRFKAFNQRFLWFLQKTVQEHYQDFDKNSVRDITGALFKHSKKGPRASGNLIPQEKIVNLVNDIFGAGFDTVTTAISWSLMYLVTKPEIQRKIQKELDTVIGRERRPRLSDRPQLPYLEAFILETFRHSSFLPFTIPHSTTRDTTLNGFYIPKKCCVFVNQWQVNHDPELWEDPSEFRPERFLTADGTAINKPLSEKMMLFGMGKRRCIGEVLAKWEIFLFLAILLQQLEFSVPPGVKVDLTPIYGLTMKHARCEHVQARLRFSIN

Vero [17] = experiment: cells; format: functional; conditions: Chlorocebus sabaeus
Cytochrome P450 3A4 = Cytochrome P450 3A4 (Homo sapiens, UniProt P08684);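 further: CYP3A4 tested as one member of a cytochrome P450 panel screen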
[18] = inhibitors of SNCA 5'UTR-driven reporter translation, confirmation, H4 neuroglioma cells, luminescence (AID 1988); format: functional, cell-based
Cytochrome P450 2C19 = Cytochrome P450 2C19 (Homo sapiens, UniProt P33261); experiment: Cytochrome panel assay with activity outcomes. Panel member name: p450-cyp2c19 Compounds with AC50 equal or less than 10 uM are considered active; format: functional; conditions: read-out: AC50
Vero [19] = experiment: cells; format: functional, cell-based; conditions: Chlorocebus sabaeus
[20] = Luminescence Cell-Based Dose Response HTS to Identify Inhibitors of 5'UTR Stem-Loop Driven Prion Protein mRNA Translation in H4 Neuroglioblastoma Cells. [Related pubchem assays: 1827 (Project Summary), 1813 (Primary HTS)]; format: functional
[21] = target: T5, Type-1 angiotensin II receptor (Homo sapiens, UniProt P30556); experiment: AT1 receptor antagonists, dose response, selectivity assay for APJ receptor antagonist project, cell-based, uHTS hits (AID 463214); format: functional;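 further: antagonist potency against angiotensin II stimulated AT1 response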
T5 sequence (P30556 whole entry): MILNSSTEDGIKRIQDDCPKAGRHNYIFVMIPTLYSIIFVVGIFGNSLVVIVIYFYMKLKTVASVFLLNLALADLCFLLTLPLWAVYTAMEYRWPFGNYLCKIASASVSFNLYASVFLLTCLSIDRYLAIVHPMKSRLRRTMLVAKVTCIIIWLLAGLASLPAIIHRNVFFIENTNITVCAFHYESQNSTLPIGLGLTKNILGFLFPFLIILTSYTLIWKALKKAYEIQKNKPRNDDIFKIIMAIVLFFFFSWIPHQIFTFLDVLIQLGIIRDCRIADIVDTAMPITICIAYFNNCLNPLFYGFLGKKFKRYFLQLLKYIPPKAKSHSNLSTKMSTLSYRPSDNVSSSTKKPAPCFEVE

[22] = inhibitors of firefly luciferase expression or activity, dose response, H4 neuroglioma cells, luminescence (AID 1990); format: functional, cell-based
cells [23] = format: functional

Chain of Beta-galactosidase (Q8VNN2 whole entry): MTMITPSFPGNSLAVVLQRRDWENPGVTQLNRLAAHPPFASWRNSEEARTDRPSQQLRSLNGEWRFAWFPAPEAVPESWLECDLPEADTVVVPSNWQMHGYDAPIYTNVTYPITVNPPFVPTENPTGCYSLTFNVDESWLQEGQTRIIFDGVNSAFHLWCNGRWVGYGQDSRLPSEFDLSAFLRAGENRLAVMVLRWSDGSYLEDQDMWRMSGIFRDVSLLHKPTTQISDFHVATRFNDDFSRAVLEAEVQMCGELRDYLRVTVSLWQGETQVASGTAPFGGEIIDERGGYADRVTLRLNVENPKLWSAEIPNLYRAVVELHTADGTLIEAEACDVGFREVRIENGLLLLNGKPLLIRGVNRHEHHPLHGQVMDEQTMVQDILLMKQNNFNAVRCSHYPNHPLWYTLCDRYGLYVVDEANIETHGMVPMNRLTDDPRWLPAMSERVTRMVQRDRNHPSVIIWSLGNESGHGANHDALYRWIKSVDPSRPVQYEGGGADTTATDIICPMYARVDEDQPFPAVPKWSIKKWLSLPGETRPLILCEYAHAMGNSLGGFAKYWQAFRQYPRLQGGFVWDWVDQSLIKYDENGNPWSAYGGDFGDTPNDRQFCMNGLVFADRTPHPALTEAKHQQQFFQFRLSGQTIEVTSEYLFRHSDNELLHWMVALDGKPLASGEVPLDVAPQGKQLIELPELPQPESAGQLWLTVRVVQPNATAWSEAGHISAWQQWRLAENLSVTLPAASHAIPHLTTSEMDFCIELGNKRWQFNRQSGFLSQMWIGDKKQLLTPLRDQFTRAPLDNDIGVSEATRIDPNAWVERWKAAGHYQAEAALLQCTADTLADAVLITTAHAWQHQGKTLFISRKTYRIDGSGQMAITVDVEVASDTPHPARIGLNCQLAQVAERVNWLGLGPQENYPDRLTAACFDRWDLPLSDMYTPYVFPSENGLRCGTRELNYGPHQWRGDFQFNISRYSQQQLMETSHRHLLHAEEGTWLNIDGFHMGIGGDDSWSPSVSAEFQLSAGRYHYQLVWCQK
Chain of Cytochrome P450 2C9 (P11712 whole entry): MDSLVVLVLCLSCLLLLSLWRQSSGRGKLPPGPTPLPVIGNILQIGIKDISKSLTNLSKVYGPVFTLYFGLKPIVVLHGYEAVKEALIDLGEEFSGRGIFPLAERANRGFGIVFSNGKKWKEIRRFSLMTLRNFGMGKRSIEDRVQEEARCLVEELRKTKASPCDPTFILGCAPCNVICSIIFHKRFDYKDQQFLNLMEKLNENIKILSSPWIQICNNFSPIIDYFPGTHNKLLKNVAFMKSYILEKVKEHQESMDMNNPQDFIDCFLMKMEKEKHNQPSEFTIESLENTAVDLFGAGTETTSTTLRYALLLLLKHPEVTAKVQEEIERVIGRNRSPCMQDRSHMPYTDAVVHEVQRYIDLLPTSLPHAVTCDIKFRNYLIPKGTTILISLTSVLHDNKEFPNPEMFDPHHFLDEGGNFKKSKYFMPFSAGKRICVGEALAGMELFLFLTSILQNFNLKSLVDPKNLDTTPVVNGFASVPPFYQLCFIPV
Chain of Cytochrome P450 3A4 (P08684 whole entry): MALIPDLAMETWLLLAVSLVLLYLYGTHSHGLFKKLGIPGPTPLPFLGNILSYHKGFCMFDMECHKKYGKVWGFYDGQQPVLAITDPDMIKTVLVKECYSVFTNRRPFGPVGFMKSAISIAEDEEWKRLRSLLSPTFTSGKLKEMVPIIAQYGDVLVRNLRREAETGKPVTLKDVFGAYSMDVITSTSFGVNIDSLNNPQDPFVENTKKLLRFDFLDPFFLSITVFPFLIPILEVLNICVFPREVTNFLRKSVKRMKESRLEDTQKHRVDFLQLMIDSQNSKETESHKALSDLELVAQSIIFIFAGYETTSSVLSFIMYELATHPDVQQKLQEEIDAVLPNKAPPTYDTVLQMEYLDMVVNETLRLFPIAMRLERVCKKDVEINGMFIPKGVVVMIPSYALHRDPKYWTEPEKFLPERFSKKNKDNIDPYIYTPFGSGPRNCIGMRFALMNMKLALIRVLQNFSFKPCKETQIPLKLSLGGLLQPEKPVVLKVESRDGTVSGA
Chain of NAD-dependent protein deacylase sirtuin-5, mitochondrial (Q9NXA8 whole entry, the tested form may be a part): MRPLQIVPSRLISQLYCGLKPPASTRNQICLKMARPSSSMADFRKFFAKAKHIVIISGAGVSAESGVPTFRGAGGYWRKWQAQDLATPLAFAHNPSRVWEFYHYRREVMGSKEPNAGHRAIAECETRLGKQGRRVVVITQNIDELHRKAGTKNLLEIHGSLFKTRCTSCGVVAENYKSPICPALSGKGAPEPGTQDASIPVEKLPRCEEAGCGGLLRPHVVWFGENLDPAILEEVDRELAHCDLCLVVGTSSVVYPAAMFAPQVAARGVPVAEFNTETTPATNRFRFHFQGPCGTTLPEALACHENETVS
Chain of Melanocortin receptor 4 (P32245 whole entry): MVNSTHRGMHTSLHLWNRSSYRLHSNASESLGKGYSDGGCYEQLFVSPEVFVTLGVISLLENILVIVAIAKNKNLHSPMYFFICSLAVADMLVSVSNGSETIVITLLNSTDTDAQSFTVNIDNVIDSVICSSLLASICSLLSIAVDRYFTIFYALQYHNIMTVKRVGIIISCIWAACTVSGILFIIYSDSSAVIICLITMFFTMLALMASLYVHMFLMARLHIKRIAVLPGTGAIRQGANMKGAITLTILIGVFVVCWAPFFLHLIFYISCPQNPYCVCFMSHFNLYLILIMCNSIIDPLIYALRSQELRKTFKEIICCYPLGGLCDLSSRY
Chain of Cytochrome P450 2C19 (P33261 whole entry): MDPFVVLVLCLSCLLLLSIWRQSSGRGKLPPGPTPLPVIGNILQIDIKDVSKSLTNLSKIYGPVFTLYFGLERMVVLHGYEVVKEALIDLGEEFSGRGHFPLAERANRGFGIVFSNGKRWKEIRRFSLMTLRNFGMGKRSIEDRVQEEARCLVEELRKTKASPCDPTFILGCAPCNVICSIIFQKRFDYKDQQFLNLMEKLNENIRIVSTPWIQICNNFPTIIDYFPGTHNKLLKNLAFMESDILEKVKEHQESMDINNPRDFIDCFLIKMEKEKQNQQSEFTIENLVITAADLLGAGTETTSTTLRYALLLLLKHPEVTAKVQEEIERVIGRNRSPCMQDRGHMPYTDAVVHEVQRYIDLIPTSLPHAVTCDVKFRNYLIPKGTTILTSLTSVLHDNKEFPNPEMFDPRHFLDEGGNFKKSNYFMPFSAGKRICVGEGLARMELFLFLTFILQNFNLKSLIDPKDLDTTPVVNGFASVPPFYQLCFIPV

COc1ccccc1-c1cc(NC(C)=O)c2ncc(-c3cccc(C(F)(F)F)c3)n2c1
EC50 (Melanocortin receptor 4): > 89.2 µM (inactive)

O=C(CC(=O)Nc1ccc(Cl)c(Cl)c1)N/N=C/c1ccc(O)cc1
IC50 [1]: 25.3 µM (inactive) | IC50 [2]: 83.3 µM (inactive) | IC50 [3]: 74 µM (active) | IC50 [4]: 43.9 µM (inactive)

Cc1ccc(S(=O)(=O)OCC(=O)Nc2ccc(C(=O)O)c(O)c2)cc1
AC50 [5]: 4.19 µM (active) | IC50 [6]: 4.64 µM (active)

C=CCn1c(COc2ccc(F)cc2)nnc1SCC(=O)NC(=O)NCc1ccco1
IC50 [6]: 15.9 µM (active)

Cc1nc(-n2nc3c(c2O)CCCC3)[nH]c(=O)c1Cc1ccccc1
EC50 (cells [7]): 16.8 µM (active) | EC50 [8]: 0.554 µM (active) | AC50 [9]: 57 µM (active) | EC50 [10]: 1.17 µM (active) | EC50 [11]: 1.14 µM (active) | EC50 (Streptococcus): 4.47 µM (active) | EC50 (cells [12]): > 350 µM (not active) | AC50 [13]: 4.44 µM (active) | AC50 [14]: 2.37 µM (active) | EC50 (Beta-galactosidase): > 40 µM (inactive) | AC50 (Cytochrome P450 2C9): 4.47 µM (inconclusive) | EC50 [15]: > 150 µM (inconclusive) | EC50 [16]: 1.06 µM (active) | AC50 (Cytochrome P450 1A2): 14.1 µM (inconclusive) | CC50 (Vero [17]): 9.47 µM (active) | AC50 (Cytochrome P450 3A4): inconclusive | EC50 [18]: 6.76 µM (active) | AC50 (Cytochrome P450 2C19): 25.1 µM (inconclusive) | IC50 (Vero [19]): > 25 µM (active) | EC50 [20]: 14.9 µM (active) | IC50 [21]: 14.2 µM (active) | EC50 [22]: 8.07 µM (active)

O=C(C/C=N\OCc1ccc([N+](=O)[O-])cc1)Nc1ccc(Cl)cc1
IC50 (cells [23]): 25.5 µM (active) | IC50 [1]: 2.56 µM (active) | IC50 [2]: 83.3 µM (inactive) | IC50 [4]: 1.73 µM (active)
